Results published in BigSolDB 2.1.

O=C(O)c1cc2ccccc2cc1O
solubility (mole fraction)
Conditions	in acetic acid	in acetone	in ethanol	in ethyl acetate	in isobutanol	in isopropanol	in methanol	in methyl acetate	in n-butanol	in n-propanol
293.15 K	0.00556	0.0363	0.0218	0.0222	0.0147	0.0234	0.0131	0.0204	0.0268	0.0234
298.15 K	0.00672	0.0389	0.0258	0.0251	0.0174	0.0267	0.0155	0.0225	0.03	0.0259
303.15 K	0.00786	0.0423	0.0294	0.0278	0.0207	0.0306	0.018	0.025	0.0346	0.0288
308.15 K	0.00913	0.0461	0.0331	0.0309	0.0236	0.035	0.0208	0.0286	0.0382	0.0323
313.15 K	0.0105	0.0506	0.037	0.0338	0.0279	0.0406	0.0239	0.0318	0.0431	0.0372
318.15 K	0.0121	0.0547	0.0415	0.0375	0.0316	0.0446	0.0271	0.0349	0.0466	0.0402
323.15 K	0.014	0.0607	0.0469	0.0417	0.0377	0.0514	0.0313	0.0402	0.0529	0.0453
328.15 K	0.0164	0.0661	0.0537	0.0468	0.0421	0.0565	0.0358	0.0447	0.0579	0.0513
333.15 K	0.0192	–	0.0619	0.0533	0.0501	0.0649	0.0415	–	0.0663	0.0574
